Laboratory results reported in patent US20150225303A1, “IRON-ESSENTIAL FOR FLORA AND FAUNA” (priority 2012, published 2015).

Columns and labels:
maize crop = experiment: Field experiment in maize crop, foliar application; type: in vivo; conditions: for Stem girth R1 / Cobs yield R1 / No. of cobs R1 / Seed yield R1: replicate R1; for Cobs yield MEAN / No. of cobs MEAN / Seed yield MEAN / Stem girth MEAN: mean of R1-R3; for Cobs yield R3 / No. of cobs R3 / Seed yield R3 / Stem girth R3: replicate R3
Protocol: Field experiments in maize crop were conducted using the composition of the present invention at Maize Research Centre, Hyderabad during kharif 2009. […] GRIP (Fe HEDP)-15% […]+27% P2O5-1 g/l of water • […] of water • […] of water • T 5: Fe EDTA-12%-1 g/l of water • T 6: […] Control (Only recommended Fertilizer dose) For all the six treatments, the composition of the present invention was used along with the recommended fertilizer dose (180-60-60 kg N-P2O5-K2O/ha). The composition of the present invention (Fe-HEDP) was applied at three stages 20, 40 and 60 days after sowing. The crops were harvested in the month of November i.e. four months after sowing.

[1] = prior art statement; cited from earlier work
[2] = treatment level 2 (2 g/l of water; GRIP T2 printed as 1 g/l)

## O=C([O-])CN(CCN(CC(=O)[O-])CC(=O)[O-])CC(=O)[O-].[Fe+3] [Fe EDTA, Fe-Ethylene diamine tetra acetic acid]
Maize crop; 1 g/l of water, applied 20, 40 and 60 days after sowing
  Stem girth R1: 6.6 cm
Maize crop; 1 g/l of water
  Cobs yield MEAN: 7516.67 kg/ha
  No. of cobs MEAN: 40.17 ′000 ha
  Seed yield MEAN: 5777.67 kg/ha
  Stem girth MEAN: 6.53 cm
  Cobs yield R1: 6205 kg/ha
  No. of cobs R1: 38.8 ′000 ha
  Seed yield R1: 5022.0 kg/ha
  Cobs yield R3: 8490 kg/ha
  No. of cobs R3: 41.2 ′000 ha
  Seed yield R3: 6448.0 kg/ha
  Stem girth R3: 6.6 cm
Maize crop; [2]
  Cobs yield MEAN: 7875.00 kg/ha
  No. of cobs MEAN: 37.8 ′000 ha
  Seed yield MEAN: 5888.00 kg/ha
  Stem girth MEAN: 6.43 cm
  Cobs yield R1: 6935 kg/ha
  No. of cobs R1: 35.6 ′000 ha
  Seed yield R1: 4355.0 kg/ha
  Stem girth R1: 6.5 cm
  Cobs yield R3: 8200 kg/ha
  No. of cobs R3: 41.0 ′000 ha
  Seed yield R3: 7633.0 kg/ha
  Stem girth R3: 6.1 cm

## O=C([O-])CN(CCN(CC(=O)[O-])CC(=O)[O-])CCN(CC(=O)[O-])CC(=O)[O-].[Fe+3] [Fe-DTPA, Fe-Diethylene triamine penta acetic acid]
[1]
  pH level up to which the chelate is stable: up to 7.0

## O=C([O-])C(NCCNC(C(=O)[O-])c1ccccc1[O-])c1ccccc1[O-].[Fe+3] (centres unmarked) [Fe-EDDHA, Fe-ethylene diamine-N,N′-bis (2-hydroxyphenylacetic acid)]
[1]
  pH level up to which the chelate is stable: up to 11.0
